Where a SMILES comes first, the peptide text is derived from it. [ ]: non-standard residue; d: D form. The star is where a group is joined. Bz = O=C(c1ccccc1)*; NPr2 = CCCN(CCC)*
Experiments:
[1] = system: B16 murine melanoma cells; assay: Total melanin synthesis in mouse melanoma cells; format: cell-based; settings: 72 h incubation
Experimental: B16 murine melanoma cells, which are highly responsive towards stimulation with alpha-melanocyte stimulating hormone (alpha-MSH), were grown in Dulbecco’s modified eagle medium (DMEM) with 1 g/L glucose supplemented with 3 g/L glucose, 2 mM L-glutamine, 50 U/mL Penicillin, 50 µg/mL Streptomycin, and 10% fetal calf serum. They were kept at 37 °C in a 5% CO2 atmosphere. Cells were grown for 24 h and then medium was replaced with medium containing the test or reference (NDP-alpha-MSH) compounds. After 72 h, total (intracellular and extracellular) melanin content was determined by absorbance spectroscopy at 405 nm. The results were quantified against a melanin standard curve.
Figure 1 Total melanin synthesis in mouse melanoma cells stimulated with MC1R-agonist peptides. MC1R-agonist peptides were incubated at various concentrations together with the near confluent mouse melanoma cell line B16F10. NDP-alpha-MSH at 100 nM was used as the reference and set to 100% melanin (red line). Error bars represent standard error of the mean of three experiments.

Nrf2 (phospho S40) = assay: Nrf2 serine 40 phosphorylation in skin explants after UVA-irradiation; format: cell-based, human; settings: p < 0.05 vs UVA-irradiated vehicle control
Experimental: On an abdominoplasty coming from a person with Fitzpatrick phototype II, skin explants of an average diameter of 11 mm were prepared after obtaining written informed consent. The explants were kept in culture medium at 37 °C in a humid, 5% CO2 atmosphere. The peptide was applied topically and spread using a small spatula on day 0 (D0), D1, D2, and D3. […] On day 3, explants were irradiated with UVA (13.5 J/cm^2 equal to 3 minimal erythemal doses (MED)) using a Vilbert Lourmat solar simulator RMX 3W. For the UV irradiation, the explants were transferred into 1 mL of HBSS (Hank’s buffered salt solution) medium. The non-irradiated batches were kept in 1 mL of HBSS medium. After the UV exposure, all the explants were put in fresh Bio-EC’s explant medium (BEM medium). The products were applied on the explants 3 h before and just after UVA irradiation. Twenty-four hours after UVA irradiation, the tissues were harvested and processed for histology. After fixation for 24 h in buffered formalin, the samples were dehydrated and impregnated in paraffin using a Leica TP 1010 dehydration automat. The samples were embedded using a Leica EG 1160 embedding station. Sections 5 µm thick were made using a Leica RM 2125 Minot-type microtome, and the sections were mounted on Superfrost® histological glass slides (Thermo Fisher Scientific, Waltham, MA, USA). […]

MT1R = molecular target: T1, MT1R (Homo sapiens, UniProt P48039); assay: MT1R activation, GTPγS scintillation proximity assay on CHO-K1 membranes; format: biochemical; settings: eight concentrations, 0.01 to 100,000 nM
T1 construct: host or cells: CHO-K1 (membrane preparations)
Experimental: Melatonin (MT1R and MT2R) and opioid receptor (OP1R, OP2R, and OP3R, corresponding to human delta, kappa, and mu opioid receptors) activation assays were performed by means of GTPγS scintillation proximity assays. For agonist testing, membrane preparations from CHO-K1 cells expressing each receptor (EuroscreenFast, Gosselies, Belgium) were mixed with guanosine diphosphate (GDP) (v/v). In parallel, GTPγ[^35S] (PerkinElmer, NEG030X, 0.1 nM final assay concentration) was mixed with PVT-WGA beads (Perkin Elmer, RPNQ001, 0.5 mg/well final assay density) (v/v) just before starting the reaction. The following reagents were then successively added in the wells of an Optiplate (Perkin Elmer): A total of 50 µL of test or reference ligand diluted in assay buffer, 10 µL of assay buffer (20 mM HEPES pH 7.4; 100–200 mM NaCl, 10 µg/mL saponin, MgCl2 at optimized concentration for the specific receptor, 0%–0.1% BSA), 20 µL of the membranes: GDP mix, and 20 µL of the GTPγ[^35S]: Beads mix. The plates were covered with a top seal, mixed on an orbital shaker for 2 min, and then incubated for 1 h at room temperature. Then the plates were centrifuged for 10 min at 2000 rpm, incubated at room temperature for 1 h, and counted for 1 min/well with a PerkinElmer TopCount™ reader.

MC3R = molecular target: T2, MC3R (Homo sapiens, UniProt P41968); assay: MC3R activation, cAMP HTRF assay in CHO-K1 cells; format: cell-based; settings: eight concentrations, 0.01 to 100,000 nM
T2 construct: host or cells: CHO-K1
Experimental: (§1) MCR-activation assays were performed by means of a cAMP HTRF (homogeneous time resolved fluorescence) assay for Gs-coupled receptors (cAMP Gs dynamic kit, Cisbio bioassays, 62AM4PEC). CHO-K1 cells expressing human recombinant MC1 receptor (EuroscreenFast, Gosselies, Belgium) (or MC2R, MC3R, MC4R, MC5R) were grown prior to the test in media without antibiotic. They were detached by gentle flushing with PBS-EDTA (5 mM EDTA), recovered by centrifugation, and resuspended in assay buffer (5 mM KCl, 1.25 mM MgSO4, 124 mM NaCl, 25 mM HEPES, 13.3 mM Glucose, 1.25 mM KH2PO4, 1.45 mM CaCl2, 0.5 g/L BSA, supplemented with 1 mM IBMX). Dose response curves were performed in parallel with the reference compounds. For agonist test (96-well), 12 µL of cells were mixed with 12 µL of the test compound diluted at increasing concentrations in assay buffer, and then incubated for 30 min at room temperature. After addition of the lysis buffer and 1 h incubation, fluorescence signal was measured, according to the manufacturer’s specifications, with the homogeneous time resolved fluorescence (HTRF) kit.

MC2R = molecular target: T3, MC2R (Homo sapiens, UniProt Q01718); assay: MC2R activation, cAMP HTRF assay in CHO-K1 cells; format: cell-based
T3 construct: host or cells: CHO-K1
Experimental: as §1

T3 sequence (Q01718 whole entry): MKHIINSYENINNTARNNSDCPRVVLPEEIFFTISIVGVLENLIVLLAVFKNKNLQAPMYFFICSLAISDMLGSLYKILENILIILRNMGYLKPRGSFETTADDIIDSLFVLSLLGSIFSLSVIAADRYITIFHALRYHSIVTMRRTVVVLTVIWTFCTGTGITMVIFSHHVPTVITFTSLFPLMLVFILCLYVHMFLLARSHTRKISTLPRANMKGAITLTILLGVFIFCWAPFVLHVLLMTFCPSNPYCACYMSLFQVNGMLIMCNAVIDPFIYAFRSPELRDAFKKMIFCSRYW
T3 sequence (Q8TCY5 whole entry partner): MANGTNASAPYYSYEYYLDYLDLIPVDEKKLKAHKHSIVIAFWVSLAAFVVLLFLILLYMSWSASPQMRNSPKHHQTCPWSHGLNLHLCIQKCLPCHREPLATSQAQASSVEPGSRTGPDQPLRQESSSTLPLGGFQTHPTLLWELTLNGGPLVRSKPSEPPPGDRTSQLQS
T2 sequence (P41968 whole entry): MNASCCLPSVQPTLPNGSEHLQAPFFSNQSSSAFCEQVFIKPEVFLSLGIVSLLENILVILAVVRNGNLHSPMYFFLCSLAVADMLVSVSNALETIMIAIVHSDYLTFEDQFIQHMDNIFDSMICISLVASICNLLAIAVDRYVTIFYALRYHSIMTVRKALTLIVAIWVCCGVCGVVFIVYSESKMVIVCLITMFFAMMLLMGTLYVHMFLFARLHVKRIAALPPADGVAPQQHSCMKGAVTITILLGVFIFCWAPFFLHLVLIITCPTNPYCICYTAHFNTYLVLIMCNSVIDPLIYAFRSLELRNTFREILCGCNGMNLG
T1 sequence (P48039 whole entry): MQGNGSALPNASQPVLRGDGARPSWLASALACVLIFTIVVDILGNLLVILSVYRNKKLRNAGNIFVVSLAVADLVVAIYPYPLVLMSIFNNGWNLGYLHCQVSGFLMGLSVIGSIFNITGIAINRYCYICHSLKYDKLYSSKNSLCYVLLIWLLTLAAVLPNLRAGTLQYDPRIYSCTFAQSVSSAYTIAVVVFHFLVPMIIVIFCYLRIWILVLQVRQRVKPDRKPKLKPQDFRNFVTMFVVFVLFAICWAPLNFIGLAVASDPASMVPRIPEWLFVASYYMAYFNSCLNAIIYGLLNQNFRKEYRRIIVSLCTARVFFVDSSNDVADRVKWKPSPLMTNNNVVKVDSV

For `CCCN(CCC)C(=O)[C@@H](Cc1c[nH]c2ccccc12)NC(=O)[C@H](CCCNC(=N)N)NC(=O)[C@@H](Cc1ccccc1)NC(=O)[C@H](Cc1c[nH]cn1)NC(=O)CNC(=O)c1ccccc1` [Peptide 4] (Bz-GH[dF]R[dW]-NPr2), the “Concentration at which maximal melanin synthesis activity comparable to 100 nM NDP-alpha-MSH is reached” value [1] was “around 12.3 nM”, the “Induction of Nrf2 phosphorylation on serine 40” value (Nrf2 (phospho S40)) was “up to 161%” and the EC50 (MT1R) was > 100 µM. The EC50 (MC3R) was 0.877 µM, the EC50 (MC2R; eight concentrations, 0.01 to 100,000 nM) was > 100 µM and the “Activation of MC2R” value (MC2R; up to 100 µM) was “no significant activation”.
